Experimental data published in patent US11299503B2, “Compound, coating composition comprising the same, organic light emitting device using the same and method for manufacturing the same” (LG Chem, Ltd., priority 2018, dated 2022).

Test: Solubility in toluene, precipitate check by tyndall effect
Assay type: physicochemical
Conditions: toluene 100 ml, left 30 minutes at room temperature (25° C.), dissolved amount measured
Procedure: In addition, Compound BD12, Compound BD24, Compound BD30, Compound BD38 and Compound C used in Example 1 to Example 4 and Comparative Example 1 were each introduced to a solvent (toluene 100 ml), and then left unattended for 30 minutes at room temperature (25° C.). After that, laser was passed through the solution to determine whether precipitates were formed through a […] effect, and the dissolved amount was measured.

Row | SMILES | Solubility [wt %]
1 | c1ccc([Si](c2ccccc2)(c2ccccc2)c2cccc(-c3ccccc3N(c3cccc([Si](c4ccccc4)(c4ccccc4)c4ccccc4)c3)c3cc4c5ccccc5c(N(c5cccc([Si](c6ccccc6)(c6ccccc6)c6ccccc6)c5)c5ccccc5-c5cccc([Si](c6ccccc6)(c6ccccc6)c6ccccc6)c5)cc4c4ccccc34)c2)cc1 [BD12] | 10
2 | c1ccc([Si](c2ccccc2)(c2ccccc2)c2cccc(-c3ccccc3N(c3ccc(-c4cc5c6ccccc6c(-c6ccc(N(c7cccc([Si](c8ccccc8)(c8ccccc8)c8ccccc8)c7)c7ccccc7-c7cccc([Si](c8ccccc8)(c8ccccc8)c8ccccc8)c7)cc6)cc5c5ccccc45)cc3)c3cccc([Si](c4ccccc4)(c4ccccc4)c4ccccc4)c3)c2)cc1 [BD24] | 10
3 | CC(C)c1ccc([Si](c2ccc(C(C)C)cc2)(c2ccc(C(C)C)cc2)c2ccc(N(c3cccc(-c4cccc([Si](c5ccc(C(C)C)cc5)(c5ccc(C(C)C)cc5)c5ccc(C(C)C)cc5)c4)c3)c3cc4c5ccccc5c(N(c5ccc([Si](c6ccc(C(C)C)cc6)(c6ccc(C(C)C)cc6)c6ccc(C(C)C)cc6)cc5)c5cccc(-c6cccc([Si](c7ccc(C(C)C)cc7)(c7ccc(C(C)C)cc7)c7ccc(C(C)C)cc7)c6)c5)cc4c4ccccc34)cc2)cc1 [BD30] | 15
4 | CC(C)c1ccc([Si](c2ccc(C(C)C)cc2)(c2ccc(C(C)C)cc2)c2ccc(N(c3ccc(-c4cc5c6ccccc6c(-c6ccc(N(c7ccc([Si](c8ccc(C(C)C)cc8)(c8ccc(C(C)C)cc8)c8ccc(C(C)C)cc8)cc7)c7cccc(-c8cccc([Si](c9ccc(C(C)C)cc9)(c9ccc(C(C)C)cc9)c9ccc(C(C)C)cc9)c8)c7)cc6)cc5c5ccccc45)cc3)c3cccc(-c4cccc([Si](c5ccc(C(C)C)cc5)(c5ccc(C(C)C)cc5)c5ccc(C(C)C)cc5)c4)c3)cc2)cc1 [BD38] | 15
5 | c1ccc(-c2ccc(N(c3ccccc3)c3cc4c5ccccc5c(N(c5ccccc5)c5ccc(-c6ccccc6)cc5)cc4c4ccccc34)cc2)cc1 [Compound C, reference compound] | 0.1
